Measured values taken from paper PMC4062305 (Journal of medicinal chemistry, 2013).
“Also recorded” adds a separate entry of the source.

The molecules below were run against T1, FAAH activity in brain (Mus musculus, UniProt O08914) (assay: Ex vivo FAAH inhibition in brain after systemic administration). Details: s.c. doses up to 40 or 75 mg/kg, 1 h after injection.
T1 sequence (O08914 1-579): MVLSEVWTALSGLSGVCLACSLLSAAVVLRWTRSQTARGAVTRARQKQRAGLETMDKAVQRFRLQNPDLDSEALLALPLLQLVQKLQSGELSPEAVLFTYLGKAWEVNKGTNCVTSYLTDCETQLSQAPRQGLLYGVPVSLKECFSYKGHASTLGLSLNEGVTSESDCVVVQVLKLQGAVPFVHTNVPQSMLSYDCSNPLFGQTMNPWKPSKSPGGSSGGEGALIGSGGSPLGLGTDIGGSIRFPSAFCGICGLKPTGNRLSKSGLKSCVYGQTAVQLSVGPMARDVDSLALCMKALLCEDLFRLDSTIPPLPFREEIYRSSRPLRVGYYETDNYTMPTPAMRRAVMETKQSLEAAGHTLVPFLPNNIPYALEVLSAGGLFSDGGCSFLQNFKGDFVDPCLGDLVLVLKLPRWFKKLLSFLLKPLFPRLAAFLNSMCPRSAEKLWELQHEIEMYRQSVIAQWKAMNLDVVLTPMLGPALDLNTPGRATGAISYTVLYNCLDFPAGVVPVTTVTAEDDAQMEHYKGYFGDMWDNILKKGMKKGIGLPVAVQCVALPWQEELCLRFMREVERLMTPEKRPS
Design: species or system Swiss Webster mice

| SMILES | Access to the brain in dose-exploration study (brain FAAH inhibition) |
| --- | --- |
| N.NC(=O)c1cccc(-c2cc(OC(=O)NC3CCCCC3)ccc2OS(=O)(=O)O)c1 [compound 30, Ammonium Cyclohexylcarbamic Acid 3’-Carbamoyl-6-sulfatebiphenyl-3-yl Ester] | did not enter the brain, even at the highest dosage tested |
| NC(=O)c1cccc(-c2cc(OC(=O)NC3CCCCC3)ccc2C(=O)O)c1 [compound 29, Cyclohexylcarbamic Acid 3’-Carbamoyl-6-carboxybiphenyl-3-yl Ester] | failed to enter the brain even at the highest dose tested; also recorded: did not enter the brain, even at the highest dosage tested |
| CC(=O)Nc1cccc(-c2cc(OC(=O)NC3CCCCC3)ccc2O)c1 [7c, Cyclohexylcarbamic Acid 3’-Acetamido-6-hydroxybiphenyl-3-yl Ester] | significantly higher brain penetration relative to 3, 7d and 7e at all doses tested |
